Source: patent US20210299022A1, “COMPOSITION FOR THE TREATMENT OF NAIL FUNGUS” (Oystershell NV, priority 2020, published 2021)

Columns and labels:
[1] = tolerance of fluorescent whitening agent upon nails; assay type: in vivo; settings: applied upon nails
Description: In a preferred embodiment, the composition according to the invention includes 2,5-bis(5-tert-butyl-benzoxazol-2-yl)thiophene as fluorescent whitening agent. 2,5-bis(5-tert-butyl-benzoxazol-2-yl)thiophene is known as FWA-184 and has CAS No: [7128-64-5].

[2] = stability of optical brightener in the composition; assay type: physicochemical; settings: in composition of example 1
Description: FWA-184, also known as OB-184 or 2,5′-Bis[2-(5-tert-buty 1-2 benzoxazoly)thiophene is an optical brightener known for polymers, paints and detergents. It's suitable for use in polymers which come into contact with keratinous tissue and skin. Furthermore, it is stable in the present composition. […] It is important that the film-forming polymer is transparent to both visible ranges as well as the wavelengths which are absorbed by the fluorescent whitening agent.

- stability in the present composition [2]: stable
SMILES: CC(C)(C)c1ccc2oc(-c3ccc(-c4nc5cc(C(C)(C)C)ccc5o4)s3)nc2c1 [FWA-184, 2,5-bis(5-tert-butyl-benzoxazol-2-yl)thiophene]
- tolerance upon nails [1]: well tolerated
